Data taken from ChEMBL document CHEMBL1132253, “Potent inhibition of influenza sialidase by a benzoic acid containing a 2-pyrrolidinone substituent” (J Med Chem, 1999).

Each molecule was assayed against Neuraminidase (Influenza B virus (strain B/Lee/1940), UniProt P03474) (assay: In vitro inhibitory activity against B/Lee/40 Influenza B Neuraminidase.).
In the case of `CCC(CC)Nc1cc(C(=O)O)ccc1N1C(=O)CCC1(CO)CO`, the IC50 is reported as 104 µM. `N=C(N)Nc1cc(C(=O)O)ccc1N1C(=O)CCC1(CO)CO` gave an IC50 of 8 µM. Molecule `CC(=O)Nc1c(N=C(N)N)cc(C(=O)O)cc1N=C(N)N` has an IC50 of 250 µM. For `CCC(CC)Nc1cc(C(=O)O)ccc1N1CCCC1=O`, the IC50 was over 5000 µM. With `O=C(O)c1ccc(N2C(=O)CCC2(CO)CO)cc1` the IC50 was over 8000 µM. For `NCC1CCC(=O)N1c1ccc(C(=O)O)cc1N=C(N)N` (stereo unspecified), the IC50 was 500 µM.
